According to US7122209B2, “Oral compositions for the treatment of non-diabetic obese mammals, including humans” (Quimica Farmaceutica Bayer S.A., priority 2001, dated 2006):

How the values were obtained:
[1] = tested on: standard-fed rats; experiment: Standard-fed rats, oral tungstate in drinking water; type: in vivo, male Wistar rats
Description: (§1) For the present experiments, male Wistar rats (IFFA CREDO), weighing 0.20–0.22 kg, were caged individually in a 12:12-h light-dark cycle, temperature and humidity controlled environment. After an adaptation period of 1 week the animals were divided into two dietary groups. One group was fed standard chow diet (2.7% in fat content, type AO4 from Panlab, Barcelona, Spain) and the second group was fed a cafeteria diet (30% in fat content). The cafeteria diet consisted of a daily offering of cookies, liver pate, bacon, standard chow and whole milk supplemented with 333 g/l sucrose and 10 g/l of a mineral and vitamin complex (Gevral, Cynamid Ibérica, Madrid, Spain). All the food items were weighed and presented in excess.
An initial set of forty rats were divided into two sets of dietary conditions, control (standard diet, n=15) and cafeteria (cafeteria diet, n=25), and fed for 30 days. […]
The treatment was carried out for 32 days. […] Selective food items consumption (corrected by the amount of water lost for each) and the weight of all animals were recorded daily. […]
Remaining rats (n=19) were withdrawn the tungstate treatment, but maintained the dietary conditions, in order to start a 35 day recovery period. […] Selective food items consumption (corrected by the amount of water lost for each) and the weight of all animals were recorded daily.

[2] = tested on: cafeteria-fed rats; experiment: Diet-induced obesity (cafeteria diet) rat model, oral tungstate in drinking water; type: in vivo, male Wistar rats
Description: The so-called “cafeteria diet” consists of an offering of freshly and highly palatable supermarket food items with high fat and/or carbohydrate content in addition to standard laboratory chow. […] Moreover, it is also known that ingestion of a cafeteria diet results in increased thermogenesis and fat deposition.
as §1
An initial set of forty rats were divided into two sets of dietary conditions, control (standard diet, n=15) and cafeteria (cafeteria diet, n=25), and fed for 30 days. In order to evaluate the effects of tungstate treatment, animals from each condition were divided into two new subsets: tungstate treated and tungstate untreated groups (simply treated and untreated in the following). The treated rats were given a solution of 2 mg/ml of sodium tungstate dihydrate in distilled water.
The treatment was carried out for 32 days. Blood glucose measurements as well as blood samples were collected before (days 0–30), during (days 31–62) and at the end of the experimental period. Selective food items consumption (corrected by the amount of water lost for each) and the weight of all animals were recorded daily.
At the end of the treatment period, rats from treated (n=8) and untreated (n=7) cafeteria-fed groups and rats from both treated (n=3) and untreated (n=3) standard-fed groups were killed and several tissues (gastrocnemius muscle, intercapular brown adipose tissue (iBAT), epididimal white adipose tissue (WAT), liver, pancreas and brain) were excised, weighed, cleaned and rapidly frozen in liquid nitrogen or fixed in formol 10% for future studies.
Remaining rats (n=19) were withdrawn the tungstate treatment, but maintained the dietary conditions, in order to start a 35 day recovery period. After this time animals were killed and processed as above. Selective food items consumption (corrected by the amount of water lost for each) and the weight of all animals were recorded daily.
The data obtained in this study allowed to establish an obesity criteria. […]

[3] = Solubility in water (description); type: physicochemical

SMILES: O.O.[Na+].[Na+].[O]=[W](=[O])([O-])[O-] [sodium tungstate dihydrate]
- body weight increase ([1]; 2 mg/ml sodium tungstate dihydrate in distilled water, treatment period days 31-62, vs untreated): significantly diminished body weight increase
- body weight after withdrawal of treatment (reversibility) ([1]; recovery period days 63-97): started to gain body weight quickly
- food intake ([2]; cafeteria diet rat model, during weight loss): without decrease of food intake
- body weight increase ([2]; cafeteria-fed rats, 2 mg/ml sodium tungstate dihydrate in distilled water, treatment period days 31-62, vs untreated): significantly diminished body weight increase
- body weight increase difference between treated and untreated rats at day 97 ([2]; cafeteria-fed rats, end of 35 day recovery period): quite important
- body weight after withdrawal of treatment (reversibility) ([2]; cafeteria-fed rats, recovery period days 63-97): started to gain body weight quickly
- solubility in water [3]: easily dissolved in water
